From patent US5618812A, “Benzodiazepine derivatives” (Merck Sharp & Dohme, Ltd., priority 1992, dated 1997)
Structures can show the parent of a compound that is named as a salt. Where two headings read alike, the source gives them in different places.

Columns and labels:
CCK-B = target: T1, CCK-B (Cavia porcellus, UniProt H0VZC5); test: displacement of specific 125I-CCK from guinea pig brain (CCK-B receptor binding)
T1 construct: guinea pig brain (CCK-B); from tissue; host or cells: guinea pig brain
T1 sequence (H0VZC5 1-426): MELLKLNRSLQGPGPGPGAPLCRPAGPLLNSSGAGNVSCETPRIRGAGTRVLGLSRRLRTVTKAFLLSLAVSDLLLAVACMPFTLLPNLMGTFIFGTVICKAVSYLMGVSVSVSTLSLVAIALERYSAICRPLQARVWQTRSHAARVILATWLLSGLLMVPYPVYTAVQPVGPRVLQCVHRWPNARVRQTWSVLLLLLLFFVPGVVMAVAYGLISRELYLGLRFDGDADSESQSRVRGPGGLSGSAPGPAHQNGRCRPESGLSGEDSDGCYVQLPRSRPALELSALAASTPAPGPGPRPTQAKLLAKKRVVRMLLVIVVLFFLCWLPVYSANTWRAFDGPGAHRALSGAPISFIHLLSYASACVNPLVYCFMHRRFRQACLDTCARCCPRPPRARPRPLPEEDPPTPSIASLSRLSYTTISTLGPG
Protocol: (§1) The CCK-A and CCK-B antagonising activity of the compounds described herein was evaluated using the assays described in published European patent application no. 0514133. The method essentially involves determining the concentration of the test compound required to displace 50% of the specific ^125 I-CCK from rat pancreas (CCK-A) or guinea pig brain (CCK-B). The data in Table 1 were obtained for compounds of the Examples.

CCK-A = target: T2, CCK-A (Rattus norvegicus, UniProt P30551); test: biochemical; type: binding; conditions: rat pancreas (CCK-A), 125I-CCK; read-out: CCK RECEPTOR BINDING RESULTS IC50 125I-CCK Pancreas
T2 sequence (P30551 1-444): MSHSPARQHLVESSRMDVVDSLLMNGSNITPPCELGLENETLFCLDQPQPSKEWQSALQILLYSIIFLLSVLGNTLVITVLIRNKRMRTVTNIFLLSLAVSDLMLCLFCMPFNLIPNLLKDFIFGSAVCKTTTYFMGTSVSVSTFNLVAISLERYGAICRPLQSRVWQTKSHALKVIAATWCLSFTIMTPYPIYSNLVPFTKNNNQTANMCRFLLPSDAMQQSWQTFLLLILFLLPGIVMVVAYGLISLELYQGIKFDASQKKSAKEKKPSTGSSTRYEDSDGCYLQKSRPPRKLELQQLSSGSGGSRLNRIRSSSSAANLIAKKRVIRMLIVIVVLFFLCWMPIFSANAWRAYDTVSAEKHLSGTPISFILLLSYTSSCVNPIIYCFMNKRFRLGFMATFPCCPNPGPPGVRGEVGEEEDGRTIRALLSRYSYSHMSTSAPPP
Protocol: as §1, with “(CCK-B).” for “(CCK-B). The data in Table 1 were obtained for compounds of the Examples.”

[1] = read-out: CCK RECEPTOR BINDING RESULTS IC50 125I-CCK Brain
[2] = CCK RECEPTOR BINDING RESULTS IC50 125I-CCK Brain

Row | SMILES | IC50 (CCK-B; [1]) | IC50 (CCK-A) | IC50 (CCK-B; [2])
1 | CCCN(CCC)C1=NC(NC(=O)Nc2cccc(C)c2)C(=O)N(C)c2ccccc21 (racemic) [Example 75, N-[3(R,S)-5-(N,N-Di-^npropylamino)-2,3-dihydro-1-methyl-2-oxo-1H-1,4-benzodiazepin-3-yl]-N-[3-methylphenyl]urea] | 46.9 nM | 314 nM | 
2 | Cc1cccc(NC(=O)NC2N=C(N3CCC(C)(C)CC3)c3ccccc3N(CC(F)(F)F)C2=O)c1 (racemic) [Example 27, N-[3(R,S)-2,3-Dihydro-5-(4,4,dimethylpiperidin-1-yl)-2-oxo-1-(2,2,2-trifluoroethyl)-1H-1,4-benzodiazepin-3-yl]N'-(3-methylphenyl) urea] | 33 nM | 15 nM | 
3 | CN1C(=O)C(NC(=O)Nc2cccc(C(F)(F)F)c2)N=C(N2CC3CCC(CC3)C2)c2ccccc21 (racemic) [Example 42, N-[3(R,S)-5-(3-Azabicyclo[3,2,2]nonan-3-yl)-2,3-dihydro-1-methyl-2-oxo-1H-1,4-benzodiazepin-3-yl]-N'-[3-trifluoromethyl-phenyl]urea] |  | 80.4 nM | 1.79 nM
4 | CCCN1C(=O)C(NC(=O)Nc2cccc(C)c2)N=C(N(C)C2CCCCC2)c2ccccc21 (racemic) [Example 60, N-[3(R,S)-5-(N-Cyclohexyl-N-methylamino)-2,3-dihydro-2-oxo-1-propyl-1H-1,4-benzodiazepin-3-yl]-N'-[3-methylphenyl]urea] | 2.56 nM | 186 nM | 
5 | C[C@@H]1CCC[C@H](C)N1C1=NC(NC(=O)Nc2ccc3c(c2)CCC3)C(=O)N(C)c2ccccc21 (single isomer, unassigned) [15 (enantiomer B)] | 75 nM | 163 nM | 
6 | CN1C(=O)C(NC(=O)Nc2cccc(F)c2)N=C(N2CC3CCC(CC3)C2)c2ccccc21 (racemic) [Example 35, N-[3(R,S)-5-(3-Azabicyclo[3,2,2]nonan-3-yl)-2,3-dihydro-1-methyl-2-oxo-1H-1,4-benzodiazepin-3-yl]-N'-[3-fluorophenyl]urea] |  | 39.6 nM | 0.82 nM
7 | CCN1C(=O)C(NC(=O)Nc2cccc(C)c2)N=C(N2CCC(C)(C)CC2)c2ccccc21 (single isomer, unassigned) [Example 30] | 0.36 nM | 347 nM | 
8 | CCCN1C(=O)C(NC(=O)Nc2cccc(C)c2)N=C(N2CCC3(CC2)OCCO3)c2ccccc21 (racemic) [Example 1, N-[3(R,S)-2,3-Dihydro-5-(1,4-dioxa-8-azaspiro[4,5]decan-8-yl)-2-oxo-1-propyl-1H-1,4-benzodiazepin-3-yl]N'-[3-methylphenyl]urea] | 14.8 nM | 724 nM | 
9 | Cc1cccc(NC(=O)NC2N=C(N3C[C@@H](C)O[C@@H](C)C3)c3ccccc3N(C)C2=O)c1 (stereo partly drawn) [Example 16, N-[3(R,S)-2,3-Dihydro-5-(cis-2,6-dimethylmorpholin-4-yl)-1-methyl-2-oxo-1H-1,4-benzodiazepin-3-yl]N'-[3-methylphenyl]urea] | 19.1 nM | 2650 nM | 
10 | CN1C(=O)C(NC(=O)Nc2cccc(C(F)(F)F)c2)N=C(N2CC3CCC(CC3)C2)c2ccccc21 (single isomer, unassigned; (+)) [Example 56, (+)-N-[5-(3-Azabicyclo[3,2,2]nonan-3-yl)-2,3-dihydro-1-methyl-2-oxo-1H-1,4-benzodiazepin-3-yl]-N'-[3-trifluoromethylphenyl]urea Hydrochloride] | 47 nM | 62 nM | 
11 | CCCN1C(=O)C(NC(=O)Nc2cccc(C)c2)N=C(N2CC3CCC(C2)N3C)c2ccccc21 (racemic) [Example 43, N-[3(R,S)-2,3-Dihydro-5-(8-methyl-3,8-diazabicyclo[3,2,1]octan-3-yl)-2-oxo-1-propyl-1H-1,4-benzodiazepin-3-yl]-N'-[3-methylphenyl]urea] |  | > 3000 nM | 48.3 nM
12 | CN1C(=O)C(NC(=O)Nc2ccc3c(c2)CCC3)N=C(N2CCC(C)(C)CC2)c2ccccc21 (single isomer, unassigned) [5 (enantiomer B)] | 14.8 nM | 7.8 nM | 
13 | Cc1cccc(NC(=O)NC2N=C(N3CCC(C)CC3)c3ccccc3N(C)C2=O)c1 (racemic) [Example 7, N-[3(R,S)-2,3-Dihydro-1-methyl-5-(4-methylpiperidin-1-yl)-2-oxo-1H-1,4-benzodiazepin-3-yl]N'-[3-methylphenyl]urea] | 1.64 nM | 7.74 nM | 
14 | CCN(C1=NC(NC(=O)Nc2cccc(C)c2)C(=O)N(C)c2ccccc21)C1CCCCC1 (racemic) [Example 78, N-[3(R,S)-5-(N-Cyclohexyl-N-ethylamino)-2,3-dihydro-1-methyl-2-oxo-1H-1,4-benzodiazepin-3-yl]-N'-3-methylphenyl]urea] | 4.5 nM | 891 nM | 
15 | Cc1cccc(NC(=O)NC2N=C(N3CCC(C)CC3)c3ccccc3N(C)C2=O)c1 (single isomer, unassigned) [8 (enantiomer A)] | 0.35 nM | 981 nM | 
16 | CN1C(=O)C(NC(=O)c2cc3ccccc3[nH]2)N=C(N2CC3CCC(CC3)C2)c2ccccc21 (racemic) [Example 87, 3(R,S)-N-(5-(3-Azabicyclo[3,2,2]nonan-3-yl)-2,3-dihydro-1-methyl-2-oxo-1H-1,4-benzodiazepin-3-yl)-1H-indole-2-carboxamide] | 509 nM | 0.87 nM | 
17 | CCCN1C(=O)C(NC(=O)Nc2cccc(C)c2)N=C(N2CCC(C)CC2)c2ccccc21 (single isomer, unassigned) [18 (enantiomer A)] | 0.64 nM | 765 nM | 
18 | Cc1cccc(NC(=O)NC2N=C(N(C)C3CCCCCCC3)c3ccccc3N(C)C2=O)c1 (racemic) [Example 83, N-[3(R,S)-5-(N-Cyclooctyl-N-methylamino)-2,3-dihydro-1-methyl-2-oxo-1H-1,4-benzodiazepin-3-yl]-N'-[3-methylphenyl]urea] | 3.67 nM | 283 nM | 
19 | CC(C)CN1C(=O)C(NC(=O)c2cc3ccccc3[nH]2)N=C(N2CCC(C)CC2)c2ccccc21 (racemic) [Example 95, 3(R,S)-N-(2,3-Dihydro-5-(4-methylpiperidin-1-yl)-1-(2-methylpropyl)-2-oxo-1H-1,4-benzodiazepin-3-yl)-1H-indole-2-carboxamide] | 161 nM | 11.6 nM | 
20 | Cc1cccc(NC(=O)NC2N=C(N3[C@H](C)C[C@H](C)C[C@@H]3C)c3ccccc3N(C)C2=O)c1 (single isomer, unassigned) [24 (enantiomer B)] | 50 nM | 46 nM | 
21 | Cc1cccc(NC(=O)NC2N=C(N(C)C3CCCCC3)c3ccccc3N(C)C2=O)c1 (racemic) [Example 63, N-[3(R,S)-5-(N-Cyclohexyl-N-methylamino)-2,3-dihydro-1-methyl-2-oxo-1H-1,4-benzodiazepin-3-yl]-N'-[3-methylphenyl]urea] | 1.36 nM | 304 nM | 
22 | CC1CCN(C2=NC(NC(=O)Nc3cccc(N4CCN(C)CC4)c3)C(=O)N(C)c3ccccc32)CC1 (racemic) [Example 96, N-[3(R,S)-2,3-Dihydro-1-methyl-5-(4-methylpiperidin-1-yl)-2-oxo-1H-1,4-benzodiazepin-3-yl]N'-[3-(N-methyl-N'-piperazinyl)phenyl]urea] | 148 nM | 94.1 nM | 
23 | COC1CCN(C2=NC(NC(=O)Nc3cccc(C)c3)C(=O)N(C)c3ccccc32)CC1 (single isomer, unassigned) [14 (enantiomer A)] | 11.6 nM | 3220 nM | 
